The text below walks through data of article PMC4551560, “Metabolic profiling of ligands for the chemokine receptor CXCR3 by liquid chromatography-mass spectrometry coupled to bioaffinity assessment” (Analytical and Bioanalytical Chemistry, 2015).

What is called Ki is the dissociation constant of the complex between target and ligand, obtained from inhibition or displacement. A high value points to lower affinity. Broadly, the Kd is a measure of binding affinity in units of concentration. Lower therefore signals tighter binding.

Assay [1] deals with T1, CXCR3 (Homo sapiens, UniProt P49682).
T1 construct: human CXCR3 in HEK293/CXCR3 membranes
T1 sequence (P49682 1-368): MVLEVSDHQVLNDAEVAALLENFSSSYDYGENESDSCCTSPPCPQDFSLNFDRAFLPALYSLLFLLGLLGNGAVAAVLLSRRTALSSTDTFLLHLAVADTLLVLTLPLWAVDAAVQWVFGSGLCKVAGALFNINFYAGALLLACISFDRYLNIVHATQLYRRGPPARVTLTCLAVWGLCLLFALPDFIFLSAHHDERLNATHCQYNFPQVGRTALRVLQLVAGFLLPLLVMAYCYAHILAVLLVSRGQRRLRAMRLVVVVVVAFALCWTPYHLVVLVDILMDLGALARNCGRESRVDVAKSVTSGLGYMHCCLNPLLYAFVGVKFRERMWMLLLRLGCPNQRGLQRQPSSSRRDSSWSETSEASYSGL
Kind of assay: [3H]-VUF11211 radioligand displacement after LC nanofractionation, HEK293/CXCR3 membranes. The assay is classed as binding.

Assay [2] concerns the target T1, CXCR3. Kind of assay: [3H]-VUF11211 radioligand displacement after LC nanofractionation, HEK293/CXCR3 membranes; […]-CXCL10 displacement also shown. The assay is classed as binding. On the technique in general: Loss of bound radioactivity is the signal in a displacement assay; it reports binding, not function.

SMILES strings stand for the structures.

`CCOc1ccc(-n2c([C@@H](C)N(Cc3cccnc3)C(=O)Cc3ccc(F)c(C(F)(F)F)c3)nc3ncccc3c2=O)cc1` [NBI-74330] showed a Ki at CXCR3 [1] of 12.6 nM. For the molecule `CCNC(=O)c1cnc(N2CCN(C3CCN(Cc4ccc(Cl)cc4)CC3)[C@@H](CC)C2)c(Cl)c1` [VUF11211], the Kd on CXCR3 [2] is 0.501 nM.
